Experiments:
bovine serum albumin = experiment: Formation of fluorescent advanced glycosylation end products in albumin incubated with glucose; format: biochemical; settings: 200 mM agent, 6 mg/mL BSA, 200 mM glucose, 37° C., two-week incubation, vs control
Method: To measure the ability of certain of the agents of the present invention to inhibit the production of advanced glycosylated end products in vitro, albumin and glucose were incubated together for two weeks in the presence of several test agents. Samples were taken at regular intervals for analysis. Advanced glycosylation end products were measured as appearance of fluorescent compounds, and early glycosylation products were measured by incorporation of radiolabeled glucose into albumin. Reaction conditions were as follows. […]
After the incubation periods, samples were treated as follows. After dialysis to remove all unbound glucose, the amount of protein present was measured with a standard dye-binding assay. The amount of glucose which became bound to the albumin, a measure of early glycosylation products, was determined by precipitating albumin with trichloroacetic acid and measuring the radioactivity of the bound glucose using scintillation counting.
The results of this experiment are expressed graphically in FIG. 1. For each sample, incorporation of radiolabeled glucose is indicated by the solid portion of the bar, and fluorescence is indicated in the open portion of the bar. All values are expressed as per milligram of albumin. […]

gelatin (collagen) = experiment: Protein trapping: radioiodinated albumin bound to gelatin (collagen) agarose beads with glucose-6-phosphate; format: biochemical; settings: agent 200 mN, 400 mN glucose-6-phosphate, two weeks, 37° C.
Text: To more precisely measure the effect of the agents on the inhibition of protein crosslinking, an assay system was devised to measure the extent of in vitro binding of a soluble protein to an insoluble protein. This assay system mimics the events which occur in tissues in which serum proteins become bound to proteins in extravascular matrix and which lead to accumulation of protein and narrowing of vessel lumina in several other tissues. These events in vivo give rise to kidney disease and atherosclerotic disease, and lead to the pathologies associated with diabetes and aging.
To measure protein trapping (i.e., binding or accumulation), gelatin (collagen) was coupled to activated agarose beads (Affigel 10, Bio-Red Laboratories) by routine methods. After coupling, all remaining active sites on the beads were quenched by reaction with glycine ethyl ester.
The beads were incubated for two weeks with bovine serum albumin and 400 mN glucose-6-phosphate, a more reactive form of glucose which forms early glycosylation products with proteins more rapidly than does glucose. […] The bovine serum albumin was radioiodinated so that the amount which became bound to the beads could be measured. […]
After a two-week incubation of the reaction mixtures at 37° C., the beads were washed extensively with chaotropic agents and the covalently bound radioactivity was determined. […]

rats = settings: subcutaneously, rats; cited from earlier work
mice = settings: subcutaneously; cited from earlier work
[1] = test system: demineralized bone matrix particles; experiment: Bone differentiation of AGE-modified demineralized bone matrix implanted in rats; format: in vivo, rat; settings: matrix incubated with glycolaldehyde
Method: In order to assess the possible role of hyperglycemia-induced matrix modifications in this process, demineralized bone matrix particles from 35 week old normal Long-Evans rats were prepared. Matrix is incubated in phosphate buffered saline alone (PBS), PBS containing various sugar precursors of AGE (PBS−G), and PBS with sugars plus the AGE-inhibitor aminoguanidine (PBS−G+AG). After incubation, the matrix is washed and implanted subcutaneously in normal rats. Twelve days after implantation, ^45CaCl2 is injected to determine implant mineralization, and alkaline phosphatase activity is measured to assess osteoblast function. Duplicate specimens are fixed, embedded and stained for histologic evaluation.

With NCCCC[C@H](N)C(=O)O [Lysine, lysine] the “formation of fluorescent compounds (advanced glycosylation end products)” value (bovine serum albumin) was “appeared to cause an increase in fluorescent compound formation” and the “amount of protein trapping (radiolabeled albumin bound to collagen beads)” value (gelatin (collagen)) was “reduced the amount of protein trapping to an extent similar to that of aminoguanidine”.
In the case of N=C(N)NN [aminoguanidine base, aminoguanidine], the LD50 (rats) is listed as 1258 mg/kg and the LD50 (mice) is listed as 963 mg/kg.
For O=CCO [glycolaldehyde, reference compound], the “matrix AGE content (by specific fluorescence), increase” value [1] was “over twofold” and the “inhibition of bone differentiation (45CaCl2 uptake, alk phos, histology)” value ([1]; implanted subcutaneously, 12 days) was “more than 90%”.
